Results on 13 molecules are retold here after EP4818159A1 (Kissei Pharmaceutical Co., Ltd., priority 2023, dated 2025).

T1 sequence (P16473 21-764): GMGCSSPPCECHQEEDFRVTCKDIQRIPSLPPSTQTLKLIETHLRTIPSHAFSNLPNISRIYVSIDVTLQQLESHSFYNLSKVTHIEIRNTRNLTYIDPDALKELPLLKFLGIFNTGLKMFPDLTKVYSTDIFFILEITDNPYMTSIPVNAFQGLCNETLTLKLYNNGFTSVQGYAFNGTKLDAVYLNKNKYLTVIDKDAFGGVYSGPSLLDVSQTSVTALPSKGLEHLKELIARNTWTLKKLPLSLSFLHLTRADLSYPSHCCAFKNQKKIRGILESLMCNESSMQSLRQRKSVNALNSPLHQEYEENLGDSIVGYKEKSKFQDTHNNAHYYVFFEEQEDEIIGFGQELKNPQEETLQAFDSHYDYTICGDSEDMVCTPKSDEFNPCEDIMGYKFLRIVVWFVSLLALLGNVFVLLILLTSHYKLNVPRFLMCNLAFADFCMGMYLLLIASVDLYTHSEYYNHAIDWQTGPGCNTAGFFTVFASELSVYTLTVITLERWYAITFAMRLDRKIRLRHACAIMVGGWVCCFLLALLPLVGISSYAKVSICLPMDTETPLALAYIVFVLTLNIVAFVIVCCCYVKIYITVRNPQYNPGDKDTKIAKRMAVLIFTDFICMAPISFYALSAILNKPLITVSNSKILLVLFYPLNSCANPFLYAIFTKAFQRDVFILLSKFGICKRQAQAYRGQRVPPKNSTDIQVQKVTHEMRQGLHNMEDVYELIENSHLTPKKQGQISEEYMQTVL

One assay addresses T1, human TSHR (Homo sapiens, UniProt P16473).
T1 construct: expressed in transfected cells
As to the kind of experiment: Antagonist activity using TSH-induced cAMP production in human TSHR-stably expressing CHO cells. In kind it is cell-based. Conditions: human TSH final concentration of 50 ng/mL, cAMP production rate. How it is done:
Measurement of antagonist activity using TSH-induced cAMP production in human TSHR-stably expressing CHO cells as an indicator
The gene sequence (reference number NM_000369.2) of human TSHR was inserted into the multiple cloning site of pcDNA3.1(+). The prepared plasmid vector was introduced into CHO cells using a lipofection method to establish human TSHR-stably expressing CHO cells. The obtained cells were seeded at 5 x 10^4 cells/well in a 96-well poly-D-lysine-coated plate, and cultured in an F12 culture medium containing 10% FBS, 400 µg/mL of G418, 50 U/mL of penicillin and 50 µg/mL of streptomycin under conditions of 37°C and 5% CO2 for 1 day. The culture medium was removed, and the cells were then washed twice with 100 µL of an assay buffer (Hanks' Balanced Salt Solution containing 20 mM HEPES and 1 mM IBMX) per well. 30 µL of an assay buffer containing a test compound was added to the well, and incubation was performed at room temperature for 15 minutes. Then, 30 µL of an assay buffer containing human TSH (a final concentration of 50 ng/mL, R&D Systems, Inc.) was added, and incubation was performed at 37°C for 1 hour. The supernatant was removed, a Lysis and Detection Buffer 2 (Cisbio) was added, and incubation was performed at room temperature for 1 hour to prepare a cell lysate. According to the instruction manual of a cAMP Gs HiRange kit (Cisbio), the cell lysate, d2-labeled cAMP and anti-cAMP Europium Cryptate labeled antibodies (Cisbio) were reacted in a 384-well white microplate. Then, a fluorescence intensity ratio (measurement wavelength 665 nm/620 nm) was measured using a multi-plate reader (PHERAstar FSX, BMG LABTECH Japan). The fluorescence intensity ratio of each sample was converted to a cAMP content using a standard curve. The cAMP content was converted as a percentage of the control value to calculate a cAMP production rate. The cAMP production rate was plotted against the test compound concentration using Prism (Graph Pad Software Inc.) to calculate the IC50 value. In the tables, IC50<3.0 µM was indicated as A, and 3.0 µM≤IC50<30 µM was indicated as B. If activity was observed but the IC50 value could not be calculated, it was indicated as C.
In general terms: Changes in cAMP serve as a functional read-out for many G protein-coupled receptors.
On to `Cc1ccc2c(c1Oc1cc(F)ccc1Cl)N(C)C(=O)C1(NC(N)=O)CC21` (centres unmarked) [Example 32, 1-(4-(2-chloro-5-fluorophenoxy)-3,5-dimethyl-2-oxo-1,2,3,7b-tetrahydro-1aH-cyclopropa[c]quinoline-1a-yl)urea], for which the IC50 was 3 to 30 µM. Same read-out and setting: as for `CN1C(=O)[C@H](NC2=NC(=O)CN2)Cc2cccc(Oc3cc(F)ccc3Cl)c21` [Example 33, (R)-8-(2-chloro-5-fluorophenoxy)-1-methyl-3-((4-oxo-4,5-dihydro-1H-imidazole-2-yl)amino)-3,4-dihydroquinoline-2(1H)-one], the figure is 3 to 30 µM; as for `CN1C(=O)[C@H](Nc2ncc[nH]2)Cc2cccc(Oc3cc(F)ccc3Cl)c21` [Example 34, (R)-3-((1H-imidazole-2-yl)amino)-8-(2-chloro-5-fluorophenoxy)-1-methyl-3,4-dihydroquinoline-2(1H)-one], 3 to 30 µM. Still for that read-out and setting: in the case of `CN1C(=O)[C@H](NC(N)=O)Cc2cccc(CCc3ccccc3)c21` [Example 35, (R)-1-(1-methyl-2-oxo-8-phenethyl-1,2,3,4-tetrahydroquinoline-3-yl)urea] it was 3 to 30 µM; in that of `CN1C(=O)[C@H](NC(N)=O)Cc2csc(Cc3cc(F)ccc3Cl)c21` [Example 36, (R)-1-(7-(2-chloro-5-fluorobenzyl)-1-methyl-2-oxo-1,2,3,4-tetrahydrothieno[3,4-b]pyridine-3-yl)urea], < 3 µM; in that of `CN1C(=O)[C@H](NC(N)=O)Cc2scc(Cc3cc(F)ccc3Cl)c21` [Example 37, (R)-1-(3-(2-chloro-5-fluorobenzyl)-4-methyl-5-oxo-4,5,6,7-tetrahydrothieno[3,2-b]pyridine-6-yl)urea], < 3 µM. The same measure, in the same setting: as for `Cc1sc2c(c1Cc1cc(F)ccc1Cl)N(C)C(=O)[C@H](NC(N)=O)C2` [Example 38, (R)-1-(3-(2-chloro-5-fluorobenzyl)-2,4-dimethyl-5-oxo-4,5,6,7-tetrahydrothieno[3,2-b]pyridin-6-yl)urea], the figure is < 3 µM; as for `CN1C(=O)[C@H](NC(N)=O)Cc2sc(Br)c(Cc3cc(F)ccc3Cl)c21` [Example 39, (R)-1-(2-bromo-3-(2-chloro-5-fluorobenzyl)-4-methyl-5-oxo-4,5,6,7-tetrahydrothieno[3,2-b]pyridin-6-yl)urea], < 3 µM. On to `CN1C(=O)[C@H](NC(N)=O)Cc2sc(C#N)c(Cc3cc(F)ccc3Cl)c21` [Example 40, (R)-1-(3-(2-chloro-5-fluorobenzyl)-2-cyano-4-methyl-5-oxo-4,5,6,7-tetrahydrothieno[3,2-b]pyridin-6-yl)urea], for which the IC50 was < 3 µM. Same read-out and setting: as for `CN1C(=O)[C@H](NC(N)=O)Cc2sc(CO)c(Cc3cc(F)ccc3Cl)c21` [Example 41, (R)-1-(3-(2-chloro-5-fluorobenzyl)-2-(hydroxymethyl)-4-methyl-5-oxo-4,5,6,7-tetrahydrothieno[3,2-b]pyridin-6-yl)urea], the figure is < 3 µM; as for `CN1C(=O)C(NC(N)=O)Cc2scc(C(=O)c3cc(F)ccc3Cl)c21` (centres unmarked) [Example 42, 1-(3-(2-chloro-5-fluorobenzoyl)-4-methyl-5-oxo-4,5,6,7-tetrahydrothieno[3,2-b]pyridin-6-yl) urea], < 3 µM. The same measure, in the same setting: as for `CC(c1cc(F)ccc1Cl)c1nsc2c1N(C)C(=O)[C@H](NC(N)=O)C2` (stereo partly drawn) [Example 43, 1-((6R)-3-(1-(2-chloro-5-fluorophenyl)ethyl)-4-methyl-5-oxo-4,5,6,7-tetrahydroisothiazolo[4 ,5-b]pyridine-6-yl)urea], the figure is < 3 µM.

Test system in the next assay: not given
Assay: not given
Particulars: mice in which a TSH-releasing hormone (TRH) has been administered; cited from earlier work.
Regarding `COc1ccc(C2Nc3ccccc3C(=O)N2Cc2ccco2)cc1COc1c(C)cc(NC(C)=O)cc1C` (centres unmarked) [NCGC00242364], the “blood T4 concentration lowering effect” value is listed as “blood T4 concentration lowering effect”.

Staying with this assay, now noted: mice in which a thyroid stimulating antibody M22 has been administered; cited from earlier work.
Consider `COc1ccc(C2Nc3ccccc3C(=O)N2Cc2ccco2)cc1COc1c(C)cc(NC(C)=O)cc1C` (centres unmarked) [NCGC00242364], for which the “blood T4 concentration lowering effect” value is reported as “blood T4 concentration lowering effect”.

Usually IC50 stands for the concentration that gives 50% inhibition. Read a high IC50 as lower potency.
